One series concerns the target heparanase. Also noted: method as in Dredge et al, 2010. The settings on record: ref Dredge et al, 2010; read-out: Ki (heparanase inhibitor); cited from earlier work.
The next series concerns B16F0 lung metastases. The experiment in a line: B16F0 experimental lung metastasis model. In kind it is in vivo, C57Bl6 mice. The settings on record: 20 mg kg^−1. How it is done: (§1) In the orthotopic Hep3b2.1-7 human liver cancer model, treatment of mice (n=10) began 14 days after inoculation of 2.5 × 10^6 cells. […] To initiate tumour xenografts, MDA-MB-231, PC3, Cal27 and HepG2 cells were injected s.c. into nude mice (n=8) at 4, 5, 2 and 2 × 10^7 cells ml^−1, respectively. […] In the B16F0 lung metastasis model, 2 × 10^5 cells were injected via the tail vein of C57Bl6 mice (n=8). […] Surface lung macrometastases were counted for each group (n=9) upon study termination. In the intrasplenic HT-29 xenograft model, 1 × 10^6 cells in 100 μl were injected into the spleen. […] Solid tumours were measured in two dimensions (length and width) and the tumour volume (cm^3) was calculated using the equation: V=length × width^2 × π/6. The anti-tumour activity was expressed as percent tumour growth inhibition (%TGI). Further details are available in Supplementary Methods. […]
(§2) antibody. […]
(§3) staining. For quantification, three independent visual fields (20x magnification) were chosen and positive stained spots or vessels with identifiable lumen were counted.
(§4) Angiogenesis inhibition and induction were calculated using the equations: […]
(§5) regimen both before and after tumour cell inoculation (days -6, -3, 0, +3, +6) or only after tumour cell inoculation (days 0, +3, +6). B16 cell (2x105) were inoculated via tail vein injections and mice were culled and assessed for lung metastases on day 12. […]

In another series the test system is MDA-MB-231 tumours. As to the kind of experiment: MDA-MB-231 breast xenograft model. In kind it is in vivo, nude mice. How it is done:
as §1, §2, §3, §4, §5

The subject of series [1] is angiogenesis (endothelial cells, rat aortic ring). Also noted: method as in Dredge et al, 2010. The settings on record: endothelial cell assays in vitro and ex vivo rat aortic ring assay; ref Dredge et al, 2010; cited from earlier work.
In another series the test system is PC3 tumours. The experiment in a line: PC3 prostate xenograft model. It counts as in vivo, nude mice. How it is done:
as §1, §2, §3, §4, §5

Another series concerns coagulation. Also noted: method as in Dredge et al, 2010. The settings on record: compared with PI-88 or earlier PG500 series compounds; ref Dredge et al, 2010; cited from earlier work.
The test system of the next series is Cal27 tumours. As to the kind of experiment: Cal27 head and neck xenograft model. The settings on record: 20 mg kg^−1 once-weekly s.c. It counts as in vivo, nude mice. How it is done: as §1, §2, §3, §4, §5
Another series relates to HepG2 tumours. The experiment in a line: HepG2 liver xenograft model. It counts as in vivo, nude mice. How it is done: as §1, §2, §3, §4, §5

Broadly, the Ki is the equilibrium dissociation constant of an inhibitor or competing ligand from its target. For orientation: TGI means the reduction of tumour growth relative to the control group. Lower therefore signals little slowing of growth. For `CC(C)CCC[C@@H](C)[C@H]1CCC2C3CCC4C[C@@H](O[C@@H]5O[C@H](COS(=O)(=O)[O-])[C@@H](O[C@H]6O[C@H](COS(=O)(=O)[O-])[C@@H](O[C@H]7O[C@H](COS(=O)(=O)[O-])[C@@H](O[C@H]8O[C@H](COS(=O)(=O)[O-])[C@@H](OS(=O)(=O)[O-])[C@H](OS(=O)(=O)[O-])[C@H]8OS(=O)(=O)[O-])[C@H](OS(=O)(=O)[O-])[C@H]7OS(=O)(=O)[O-])[C@H](OS(=O)(=O)[O-])[C@H]6OS(=O)(=O)[O-])[C@H](OS(=O)(=O)[O-])[C@H]5OS(=O)(=O)[O-])CC[C@]4(C)C3CC[C@@]21C.[Na+].[Na+].[Na+].[Na+].[Na+].[Na+].[Na+].[Na+].[Na+].[Na+].[Na+].[Na+].[Na+]` (stereo partly drawn) [PG545], the Ki at heparanase is 6 nM. Besides, the “TGI (lung metastases)” value came to 62% in the series on B16F0 lung metastases (days 0, +3, +6) and 99% in the series on B16F0 lung metastases (days −6, −3, 0, +3, +6). Besides, the TGI is given as 69% with MDA-MB-231 tumours (30 mg kg^−1 once-weekly s.c.); 59% in the series with MDA-MB-231 tumours (30 mg kg^−1 twice-weekly s.c.); 74% in the series with PC3 tumours (20 mg kg^−1 once-weekly s.c.); 83% with PC3 tumours (20 mg kg^−1 twice-weekly s.c.); 57% in the series with Cal27 tumours; 55% in the series on HepG2 tumours (20 mg kg^−1 once-weekly s.c.). In the series with HepG2 tumours (20 mg kg^−1 twice-weekly s.c.), the TGI turned out to be 45%. In addition, the angiogenesis inhibitor potency in series [1] is no more than 1000 nM. Also, the anti-coagulant properties result in the series on coagulation is on record as “mild anti-coagulant properties”.

These data come from PMC3049593 (British Journal of Cancer, 2011).
